Where two headings read alike, the source gives them in different places.
Target: T1, human TAS2R44 bitter taste receptor (Homo sapiens, UniProt P59538, L162M)
T1 construct: The TAS2R44 construct contains RSS tag, TAS2R44, and the HSV tag which are fused in frame; expressed in transfected cells; host or cells: HEK293T cells stably expressing Galpha16-gustducin44
T1 sequence (P59538 with tags, fused parts or gaps L162M): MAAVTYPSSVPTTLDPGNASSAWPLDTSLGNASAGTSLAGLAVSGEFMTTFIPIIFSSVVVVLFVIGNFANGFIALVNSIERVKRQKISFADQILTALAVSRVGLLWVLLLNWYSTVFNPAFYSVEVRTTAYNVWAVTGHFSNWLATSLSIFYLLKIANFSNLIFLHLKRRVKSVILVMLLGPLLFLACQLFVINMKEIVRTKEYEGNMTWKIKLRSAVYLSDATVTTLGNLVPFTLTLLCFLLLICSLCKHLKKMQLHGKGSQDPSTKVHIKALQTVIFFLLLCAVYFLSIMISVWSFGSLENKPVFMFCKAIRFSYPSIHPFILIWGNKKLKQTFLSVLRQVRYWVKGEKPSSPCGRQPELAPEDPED
Test: TAS2R44 bitter taste receptor Fluo-4 calcium assay for IC50 determination
Format: cell-based
Protocol: A taste receptor screen and concentration-response analysis was performed and from results inhibitory concentration (IC) IC50 values can be calculated by nonlinear regression using the function f(x)=(a−d)/(1+(x/C)^nh)+d; with a=minimum signal, d=maximum signal, nh=hill coefficient, C=IC50 and x=concentration of antagonist. IC50 is the molar concentration of an antagonist which produces 50% of the maximum possible inhibitory response for that antagonist.
TAS2R44 Bitter Taste Receptor Assay for IC 50 Determination
The full length gene of human TAS2R44 was amplified by polymerase chain reaction (PCR) using gene-specific primers that span the entire coding region as described in WO 2004/029087.
The TAS2R44 cDNA was subcloned into an expression cassette based on either of the following plasmids/expression vectors: pcDNA3.1Zeo (Invitrogen). These vectors contain within their multiple cloning sites the nucleotide sequence coding for the first 45 amino acids of the rat somatostatin receptor subtype 3 (RSS tag) to facilitate cell surface targeting of the transgene (SEQ ID #4) and the nucleotide sequence coding for the herpes simplex virus (HSV) glycoprotein D epitope (HSV epitope in aminoterminal to carboxyterminal direction, HSV tag). (SEQ ID #3) for facilitating immunocytochemical detection.
The TAS2R44 construct contains RSS tag, TAS2R44, and the HSV tag which are fused in frame to allow translation into the receptor protein and the resulting receptor cDNA.
This transfected expression vector is called pcDNA3.1Zeo-TAS2R44 (SEQ ID #1) and allows for expression of the TAS2R44 protein (SEQ ID #2).
A cell line that stably expresses the human bitter taste receptor (TAS2R44) was generated by transfecting pcDNA3.1Zeo-TAS2R44 into HEK293T/Gα16-gustducin 44 cells (both formed as described in under 1) above). The host cell line HEK-293T is commercially available from the American […] (catalog #CRL-1573).
On day 0, the HEK293T Gα16-gustducin44 cells were seeded in a 6-well plate at a density of 900,000 cells per well and grown over night in selective growth medium (DMEM with 10% (v/v) heat-inactivated fetal bovine serum, 2 mM L-glutamine, 100 units/ml penicillin, 100 μg/ml streptomycin, 200 μg/ml G418 and 200 μg/ml zeocin). On day 1, the medium was exchanged with 2 ml of antibiotic-free and serum-free growth medium. 10 μl Lipofectamine 2000 was dissolved in 250 μl DMEM and incubated for 5 minutes at room temperature. In parallel, 4 μg TAS2R44 vector DNA were dissolved in 250 μl DMEM. These two resulting solutions are mixed and incubated for 20 minutes at room temperature before they are added to the cells into the cell culture medium. After 4 hours, the medium is replaced with antibiotic-free, serum-containing growth medium.
Fluo-4_AM (Invitrogen) is a fluorescent indicator of intracellular calcium dynamics (change in concentration) and allows monitoring changes in the calcium concentration, particularly an increase in response to receptor activation occurring after agonist exposure.
At day 0, the HEK293T cell line stably expressing Gα16-gustducin44 and TAS2R44 formed as described under 2) was seeded in antibiotic-free growth medium (standard DMEM with 10% (v/v) heat-inactivated fetal bovine serum, 2 mM L-glutamine […]) into black wall/clear bottom 96-well plates, coated with poly(ethylenimine) (0.005% v/v) at a concentration of 15,000 cells per well and incubated for 48 hours in humidified atmosphere (37° C., 5% CO2).
At the time of the assay, the growth medium was discarded and the cells were further incubated in a humidified atmosphere (37° C., 5% CO2) for 1 hour with 50 μl of loading buffer consisting of 1.5 μM Fluo-4 AM and […] (Sigma-Aldrich) in DMEM. […]

[1] = agonist not stated, read-out: IC50 when tested with the TAS2R44 bitter taste receptor
[2] = Acesulfame K (0.8 mM) as agonist, same range as example 3
[3] = saccharin (0.5 mM) as agonist, HEK293T cells expressing Gα16-gustducin44 and TAS2R44, read-out: IC50

| IC50 [1] [µM] | IC50 [2] | IC50 [3] [µM] | SMILES |
| --- | --- | --- | --- |
| 0.1 to 20 |  |  | CCC[C@]12CC[C@](C(=O)O)(CC1)CC2 [cis-4-propylbicyclo[2.2.2]octane-1-carboxylic acid] |
| 0.1 to 20 |  |  | CCC(C)[C@H]1CC[C@@H](C(=O)O)CC1 (stereo partly drawn) [cis-4-sec-butylcyclohexanecarboxylic acid] |
| 0.1 to 20 | within the same range | 0.05 to 25 | CCC[C@H]1CC[C@@H](C(=O)O)CC1 [cis-4-propylcyclohexanecarboxylic acid] |
| 0.1 to 20 |  |  | CC(C)CCC[C@H]1CC[C@@H](C(=O)O)CC1 [cis-4-(4-methylpentyl)cyclohexanecarboxylic acid] |
| 0.1 to 20 |  |  | O=C(O)[C@H]1CC[C@@H](Cc2ccccc2)CC1 [cis-4-benzylcyclohexanecarboxylic acid] |
| 0.1 to 20 | within the same range | 0.05 to 25 | CC(C)(C)[C@H]1CC[C@@H](C(=O)O)CC1 [cis-4-tert-butylcyclohexanecarboxylic acid] |

| SMILES | IC50 [1] [µM] | IC50 [2] | IC50 [3] [µM] |
| --- | --- | --- | --- |
| O=C(O)[C@H]1CC[C@@H](c2ccccc2)CC1 [cis-4-phenylcyclohexanecarboxylic acid] | 0.1 to 20 |  |  |

Reference: US10172378B2, “Mono- or bicyclic carboxylic acids as off-note blockers” (Givaudan, S.A., priority 2007, dated 2019)
